Measurements published in patent US20120288883A1, “PROBE REAGENT FOR MEASUREMENT OF PROTEOLYTIC ACTIVITY” (RIKEN, priority 2010, published 2012).

Each substance was assayed on ubiquitin-proteasome system (assay: Screening for degradation-terminating peptide: FRET fluorescence imaging of probe reagents expressed in HeLa cells). Details: CyPet/YPet probe with Geminin (1/110) degron.
Assay type: cell-based
Text: In order to develop a probe reagent of interest, p105 was screened for a peptide sequence capable of terminating degradation. CyPet as a fluorescent protein I, YPet as a fluorescent protein II, and Geminin as a degron protein were used to prepare an experimental probe reagent (FIG. 2). The fluorescent protein CyPet is derived from CFP and has an excitation wavelength peak of 435 nm and a fluorescence wavelength peak of 477 nm. The fluorescent protein YPet is derived from YFP and has an excitation wavelength peak of 517 nm and a fluorescence wavelength peak of 530 nm. This pair is known to efficiently cause FRET with CyPet as a donor and YPet as an acceptor. The protein Geminin is a factor controlling the progression of cell cycle and has the function of inhibiting the licensing of DNA replication (Cell 1998; 93 (11): 1043-1053; and Am. J. Pathol. 2002; 161 (1): 267-273). Its abundance is strictly controlled during cell cycle so that its expression level increases in the S/G2/M phases and this protein disappears due to the promoted degradation by the ubiquitin-proteasome system in the G1 phase. A region of N-terminal amino acids 1-110 (Geminin (1/110)) containing a moiety necessary for the degradation of the Geminin molecule was selected from the structure of Geminin (e.g., NM_015895 (human, SEQ ID NOs: 18 and 19), NM_020567 (mouse)) and used in this experiment.
The respective cDNAs of these molecules were amplified by PCR and ligated by insertion to each restriction enzyme site in the multicloning site of a cloning vector pBluescript II SK(+) (Stratagene) to prepare gene DNA of the probe reagent. A region of amino acids 366-440 in human-derived p105 (SEQ ID NOs: 16 and 17) was screened for a peptide sequence for terminating degradation. This region contains GRR and processing point.
The prepared gene DNA of the probe reagent was then excised from the pBlueScript vector with restriction enzymes, and this fragment was inserted into the multicloning site of an expression vector CSII-EF-MCS to prepare a vector for expression in cultured cells.
HeLa cells were cultured in a Dulbecco's modified Eagle's medium containing 10% fetal bovine serum in a 35 mmφ glass-bottomed dish. The prepared vector plasmid was mixed with a transfection reagent FuGENE (Roche Applied Science) and added to the medium. The HeLa cells were cultured in a CO2 incubator for 2 days so that the cells expressed the probe reagent and experienced cell cycle.
This is because the intramolecular nuclear localization signal of the Geminin protein, which functions in the nucleus, allowed the probe reagent to be selectively incorporated into the nucleus. The amount of Geminin changes periodically depending on the promoted or suppressed degradation by the ubiquitin-proteasome system in accordance with cell cycle. If the degradation of the probe reagent accompanying the degradation of Geminin is terminated by the degradation-terminating peptide, CyPet accumulates in the cell during every cell cycle without being degraded and thus reduces an YPet/CyPet fluorescence intensity ratio serving as an index value for FRET at the time of CyPet excitation. After the degradation of Geminin, the probe reagent lacks the nuclear localization signal. As a result, the remaining CyPet molecule also becomes distributed in the cytoplasm. The cells were fluorescently imaged from these viewpoints and screened for a peptide capable of terminating degradation.
An inverted microscope (IX70, Olympus Corp.) was used in cell observation. Fluorescence images were obtained using a 3-CCD cooled color camera (ORCA-3CCD, Hamamatsu Photonics K.K.). This camera can simultaneously capture images in three wavelength (red, green, and blue) regions and merge them to form observable color images. Also, it can individually measure the brightness of the image in each wavelength region. After excitation with a 440 nm band-pass filter, the fluorescence images of the cells were obtained through a 460 nm long-pass filter. […]

Substance	ability of the peptide to terminate degradation of the probe reagent
GRR: glycine-rich region, amino acids 376-404 of human p105, tested alone as degradation-terminating peptide	failed to terminate the degradation
p105 (376/409): probe reagent containing human p105 amino acids 376-409 (SEQ ID NO: 11) (GGGSGAGAGGGGMFGSGGGGGGTGSTGPGYSFPH; listed as Homo sapiens)	capable of efficiently terminating protein degradation
p105 (376/420): probe reagent containing human p105 amino acids 376-420 (SEQ ID NO: 9) (GGGSGAGAGGGGMFGSGGGGGGTGSTGPGYSFPHYGFPTYGGITF; listed as Homo sapiens)	capable of efficiently terminating protein degradation
p105 (376/434): probe reagent containing human p105 amino acids 376-434 (SEQ ID NO: 7) (GGGSGAGAGGGGMFGSGGGGGGTGSTGPGYSFPHYGFPTYGGITFHPGTTKSNAGMKHG; listed as Homo sapiens)	capable of efficiently terminating protein degradation
p105 (382/440): probe reagent containing human p105 amino acids 382-440 (SEQ ID NO: 3) (GAGGGGMFGSGGGGGGTGSTGPGYSFPHYGFPTYGGITFHPGTTKSNAGMKHGTMDTES; listed as Homo sapiens)	capable of efficiently terminating protein degradation
p105 (392/440): probe reagent containing human p105 amino acids 392-440 (SEQ ID NO: 5) (GGGGGGTGSTGPGYSFPHYGFPTYGGITFHPGTTKSNAGMKHGTMDTES; listed as Homo sapiens)	capable of efficiently terminating protein degradation
